According to patent publication US12227495B2, “Herbicidal compounds” (SYNGENTA CROP PROTECTION AG, priority 2018, dated 2025):

Columns and labels:
Format in all cases: in vivo
[1] = system: Lolium perenne (LOLPE); assay: Pre-emergence herbicide test, glasshouse, percentage damage; conditions: rate 1000 g/ha, evaluated after 13 days
How it was run: (§1)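 Percentage damage, recorded 13 days after treatment, is given as a five-point score (1=0-20%, 2=21-40%, 3=41-60%, 4=61-80%, 5=81-100%). Plants grown in soil pots under 24/16 °C, 14 h light and 65% humidity received a 500 g/ha spray (unless stated otherwise).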

[2] = system: Amaranthus retoflexus (AMARE); assay: as above; conditions: rate 1000 g/ha, evaluated after 13 days
How it was run: as §1

[3] = system: Solanum nigrum (SOLNI); assay: as above; conditions: rate 1000 g/ha, evaluated after 13 days
How it was run: as §1

[4] = system: Setaria faberi (SETFA); assay: as above; conditions: rate 1000 g/ha, evaluated after 13 days
How it was run: as §1

[5] = system: Echinochloa crus-galli (ECHCG); assay: as above; conditions: rate 1000 g/ha, evaluated after 13 days
How it was run: as §1

[6] = system: Ipomoea hederacea (IPOHE); assay: as above; conditions: rate 1000 g/ha, evaluated after 13 days
How it was run: as §1

[7] = system: Lolium perenne (LOLPE); assay: Post-emergence herbicide test, glasshouse, percentage damage; conditions: 1000 g/ha, evaluated after 13 days
How it was run: as §1

[8] = system: Amaranthus retoflexus (AMARE); assay: as above; conditions: 1000 g/ha, evaluated after 13 days
How it was run: as §1

[9] = system: Solanum nigrum (SOLNI); assay: as above; conditions: 1000 g/ha, evaluated after 13 days
How it was run: as §1

[10] = system: Setaria faberi (SETFA); assay: as above; conditions: 1000 g/ha, evaluated after 13 days
How it was run: as §1

[11] = system: Echinochloa crus-galli (ECHCG); assay: as above; conditions: 1000 g/ha, evaluated after 13 days
How it was run: as §1

[12] = system: Ipomoea hederacea (IPOHE); assay: as above; conditions: 1000 g/ha, evaluated after 13 days
How it was run: as §1

Compound	Pre-emergence Test LOLPE percentage damage (five point scale) [1]	Pre-emergence Test AMARE percentage damage (five point scale) [2]	Pre-emergence Test SOLNI percentage damage (five point scale) [3]	Pre-emergence Test SETFA percentage damage (five point scale) [4]	Pre-emergence Test ECHCG percentage damage (five point scale) [5]	Pre-emergence Test IPOHE percentage damage (five point scale) [6]	percentage damage caused to the plant, LOLPE [7]	percentage damage caused to the plant, AMARE [8]	percentage damage caused to the plant, SOLNI [9]	percentage damage caused to the plant, SETFA [10]	percentage damage caused to the plant, ECHCG [11]	percentage damage caused to the plant, IPOHE [12]
Fc1cccc(Oc2cccc(Br)c2-c2cc(C(F)F)no2)n1 [Compound A98]	3 (3=41-60%)	4 (4=61-80%)	3 (3=41-60%)	5 (5=81-100%)	5 (5=81-100%)	1 (1=0-20%)	3 (3=41-60%)	4 (4=61-80%)	4 (4=61-80%)	5 (5=81-100%)	4 (4=61-80%)	3 (3=41-60%)
FC(F)c1cc(-c2c(Br)cccc2Oc2cc(C(F)(F)F)ccn2)on1 [Compound A99]	3 (3=41-60%)	5 (5=81-100%)	1 (1=0-20%)	4 (4=61-80%)	4 (4=61-80%)	1 (1=0-20%)	3 (3=41-60%)	5 (5=81-100%)	4 (4=61-80%)	4 (4=61-80%)	4 (4=61-80%)	2 (2=21-40%)
Fc1cnc(Oc2cccc(Br)c2-c2cc(C(F)F)no2)c(F)c1 [Compound A101]	5 (5=81-100%)	5 (5=81-100%)	4 (4=61-80%)	5 (5=81-100%)	5 (5=81-100%)	5 (5=81-100%)	4 (4=61-80%)	5 (5=81-100%)	5 (5=81-100%)	5 (5=81-100%)	4 (4=61-80%)	5 (5=81-100%)
N#Cc1ccc(Oc2cccc(Br)c2-c2cc(C(F)F)no2)nc1 [Compound A102]	5 (5=81-100%)	5 (5=81-100%)	4 (4=61-80%)	5 (5=81-100%)	5 (5=81-100%)	4 (4=61-80%)	4 (4=61-80%)	5 (5=81-100%)	5 (5=81-100%)	5 (5=81-100%)	4 (4=61-80%)	5 (5=81-100%)
Fc1cc(Br)cnc1Oc1cccc(Br)c1-c1cc(C(F)F)no1 [Compound A103]	5 (5=81-100%)	5 (5=81-100%)	3 (3=41-60%)	5 (5=81-100%)	5 (5=81-100%)	5 (5=81-100%)	5 (5=81-100%)	5 (5=81-100%)	5 (5=81-100%)	5 (5=81-100%)	4 (4=61-80%)	5 (5=81-100%)
Fc1cc(C(F)(F)F)cnc1Oc1cccc(Br)c1-c1cc(C(F)F)no1 [Compound A104]	4 (4=61-80%)	4 (4=61-80%)	2 (2=21-40%)	5 (5=81-100%)	4 (4=61-80%)	4 (4=61-80%)	3 (3=41-60%)	4 (4=61-80%)	5 (5=81-100%)	4 (4=61-80%)	4 (4=61-80%)	4 (4=61-80%)
N#Cc1cc(Cl)cnc1Oc1cccc(Br)c1-c1cc(C(F)F)no1 [Compound A105]	5 (5=81-100%)	5 (5=81-100%)	5 (5=81-100%)	5 (5=81-100%)	5 (5=81-100%)	5 (5=81-100%)	4 (4=61-80%)	5 (5=81-100%)	5 (5=81-100%)	5 (5=81-100%)	4 (4=61-80%)	5 (5=81-100%)
FC(F)c1cc(-c2c(Br)cccc2Oc2ccc(Br)cn2)on1 [Compound A106]	5 (5=81-100%)	4 (4=61-80%)	3 (3=41-60%)	5 (5=81-100%)	5 (5=81-100%)	3 (3=41-60%)	5 (5=81-100%)	5 (5=81-100%)	5 (5=81-100%)	5 (5=81-100%)	4 (4=61-80%)	4 (4=61-80%)
